The target of this test is DNA gyrase (Escherichia coli) (UniProt P0AES6+P0AES4). Put plainly: In vitro activity against Escherichia coli DNA gyrase supercoiling. It counts as protein-complex assay.

Where only a bound is given, the exact number is not on record here.

Consider `Cc1ccc2c(c1)/C(=N/N=C/c1c(O)ccc3ccccc13)C(=O)N2`, for which the MNEC was more than 100 µM. With `O=C1N=C(N2CCOCC2)S/C1=C1\C(=O)Nc2ccccc21` the figure was more than 100 µM; with `CCCCc1nc(/C=C2\C(=O)Nc3ccccc32)c[nH]1`, 50 µM. Next, `O=C1Nc2ccccc2/C1=C/c1ccccc1N1CCOCC1`: more than 100 µM; `O=C1Nc2ccccc2/C1=N/c1ccc(C(F)(F)F)cc1`: more than 100 µM. As for `O=C1Nc2ccccc2/C1=C/c1c[nH]c2cc([N+](=O)[O-])ccc12`, the MNEC is more than 100 µM. Regarding `O=C(/N=N/c1c(O)[nH]c2ccc(Br)cc12)c1ccncc1`, the MNEC was more than 100 µM.

As to `Cc1[nH]c2ccccc2c1/C=C1\C(=O)Nc2ccccc21`, the MNEC is more than 100 µM. Next, `CCc1nc(/C=C2\C(=O)Nc3ccccc32)c[nH]1`: less than 100 µM. Turning to `O=C1Nc2ccccc2/C1=C/c1cnc[nH]1`, the MNEC turned out to be 100 µM. `O=C1Nc2ccccc2/C1=C/c1ccc([N+](=O)[O-])cc1` yielded an MNEC of more than 100 µM.

Turning to `CCc1nc(C)c(/C=C2\C(=O)Nc3ccccc32)[nH]1`, the MNEC is 25 µM. Turning to `O=C1Nc2ccccc2/C1=C/c1c[nH]c(-c2ccccc2)n1`, the MNEC is more than 100 µM. Next, `O=C1Nc2ccccc2/C1=C/c1c[nH]nc1-c1cccs1`: more than 100 µM; `Oc1[nH]c2ccccc2c1/N=N/c1n[nH]c2c3ccccc3nc-2n1`: more than 100 µM.

For the compound `O=C1Nc2ccccc2/C1=C/c1cccnc1`, the MNEC is more than 100 µM.

The values are drawn from ChEMBL document CHEMBL1141949, “In silico fragment-based discovery of indolin-2-one analogues as potent DNA gyrase inhibitors” (Bioorg Med Chem Lett, 2005).
